According to patent publication US6124266A, “Sulpholipid composition and methods for treating skin disorders” (Scotia Lipid Teknik AB, priority 1996, dated 2000):
Read-outs that look alike come from different tables or passages of the source.

Tests used:
PAF receptor [1] = target: T1, PAF receptor (Homo sapiens, UniProt P25105); experiment: [3H]PAF receptor binding assay; details: human polymorphonuclear leukocytes, 120 min, 20° C., pH 7.0, 0.35-0.40 nM [3H]PAF; mean of 2-4 experiments in triplicate; read-out: IC50, displacement of [3H]PAF binding
T1 construct: endogenous in cells; host or cells: human polymorphonuclear leukocytes (intact cells from concentrated suspensions of human leukocytes)
T1 sequence (P25105 whole entry): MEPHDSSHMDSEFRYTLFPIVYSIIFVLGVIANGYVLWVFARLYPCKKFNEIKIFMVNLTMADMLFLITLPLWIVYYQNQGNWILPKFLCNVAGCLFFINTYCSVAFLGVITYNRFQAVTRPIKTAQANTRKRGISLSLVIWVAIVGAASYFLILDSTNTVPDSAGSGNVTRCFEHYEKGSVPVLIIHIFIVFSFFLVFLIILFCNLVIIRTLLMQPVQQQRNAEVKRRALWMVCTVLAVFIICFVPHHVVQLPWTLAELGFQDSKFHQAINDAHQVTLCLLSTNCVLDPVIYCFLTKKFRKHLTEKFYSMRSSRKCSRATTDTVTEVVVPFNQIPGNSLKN
Source text: (§1) The PAF induced exocytosis model described above is used for screening for PAF receptor antagonists since it is a rapid, reproducable and reliable so called functional assay for PAF. However, a number of other actions, like elastase inhibition or membrane stabilisation, would also result in an inhibitory effect in the model which consequently is not exclusive for PAF receptor antagonism. To elucidate if SQDG acts through PAF receptor antagonism in the neutrophil, a receptor binding model using [3H]PAF as the radioligand was used.
Cell preparation: For the receptor binding experiments the cells were prepared in the same way as described above except that concentrated suspensions of human leukocytes in a CDP-adenine solution were used and in the final step the cells were suspended in the incubation buffer and the cell count was adjusted to 3.1×10^6 cells/ml.
[^3 H]PAF (C18; 1-O-[^3 H]octadecyl-2-acetyl-sn-3-phosphocholine; Amersham, England) receptor binding was studied in human polymorphonuclear leukocytes (2.5×10^6 cells/ml) using a method recently reevaluated by us (Vasange et al., in press, 1996). Incubations were performed for 120 min at 20° C. in a total volume of 1.0 ml containing […] 25 mM Tris HCl, 130 mM NaCl, 5.5 mM KCl, 1.4 mM CaCl2, 0.7 mM MgCl2, 10 mM glucose, 0.5% BSA and 0.35-0.40 nM [^3 H]PAF. Final pH was 7.0 at the incubation temperature used. Non-specific binding was determined with 1 μM C16-PAF (Bachem, Switzerland). The incubation contents were rapidly filtered by vacuum over Whatman GF/C glass-fibre filters using a 12 well Skatron Cell Harverster (Skatron A/S, Norway) and washed with 3×2 ml incubation buffer containing 0.1% BSA. The filtration took less than 15 s. Filters were also pre-soaked with incubation buffer containing 0.1% BSA. Following filtration, the filters were dried in an oven at 70° C. for 30 min and equilibrated for two hours in the scintillation vials before counting in a Packard scintillator at an efficiency of 55%. […]

PAF receptor [2] = details: cited from earlier work
[3] = system: PAF induced elastase release in human neutrophils; experiment: PAF induced exocytosis (elastase assay); assay type: cell-based; details: for IC50: human leucocytes, 37° C., 10 min, mean of 2-4 experiments in duplicate, read-out: IC50, inhibition of PAF induced elastase release; for inhibitory activity in the PAF induced exocytosis model: in concentrations around the IC50 of SQDG
Method: In this test, which is also called the elastase assay, the effect of the extracts on inhibiting the exocytosis induced by PAF was examined. This model was used to guide the fractionation of the extracts or isolated compounds.
Cell preparation: Peripheral blood anti-coagulated with heparin was obtained from healthy volunteers at the University Hospital (in Uppsala, Sweden). After sedimentation with 10% Dextran T-500 (Pharmacia Fine Chemicals) for 30 min at 20° C. the supernatant was removed and centrifuged at 200×g for 30 min. The sediments were treated with one volume of ice-cold water for 21 s followed by the addition of 9 volumes of Mg^2+ and Ca^2+ free PBS in order to lyse the remaining erythrocytes. After centrifugation (200×g for 10 min at 4° C.) the leucocytes were suspended in PBS (containing Mg^2+ and Ca^2+ and Cytochalasin B, Serva, 5 μg/ml) at a concentration of 10-30×10^6 cells/ml.
The assay was performed as described by Tuominen et al., Planta Medica 58, 306-310 (1992). In short leucocytes were incubated at 37° C. in PBS containing 2.5% BSA together with SAAVNA (N-succinyl-L-alanyl-L-alanyl-L-valine-p-nitroanilide, Bachem), the inhibitor in different concentrations or the vehicle (max. 0.1% DMSO) and PAF (Bachem) for 10 min. Blank tubes without PAF were run in parallel. The reaction was stopped by the addition of 2% citric acid and after the centrifugation, the samples were measured in a UV spectrophotometer at 405 nm. The absorbance of the corresponding blank tube was subtracted from the sample and the inhibition of PAF induced elastase release was calculated as the […] in absorbance as compared to the vehicle. The samples were analyzed as 4-5 concentrations ranging from 10^-3 M to 10^-7 M. They were dissolved in 10% DMSO (the isolated compound) or cyclodextrin (BN 52021, used as a reference) and then diluted with the buffer. The final concentration of DMSO or cyclodextrin never exceeded 0.1%.
as §1

[4] = system: oedema induced by carrageenan potentiated by PAF; details: rat, in vivo; cited from earlier work
[5] = system: carrageenan induced rat paw oedema; experiment: Rat paw oedema induced by carrageenan; assay type: in vivo, rat (Spraque Dawley); details: Na-salicylate 200 mg/kg (positive control), p < 0.0005
Method: The most commonly used inducer is carrageenan which is injected to the hind paw of male Spraque Dawley rats.
Several tests were performed with the methanolic Calaguala extract which was applied orally in doses 500-2000 mg/kg. As positive control the cyclo-oxygenase inhibitor Na-salicylate (200 mg/kg) was used.
The significancies were calculated using Students t-test (one tailed).

[6] = system: leukotriene B4 synthesis in human leucocytes; details: cited from earlier work
tumour promotion = details: Chem. Pharm. Bull. 41 (9), 1664-1666, 1993; cited from earlier work
[7] = system: ethyl phenyl propiolate (EPP) induced rat ear oedema; experiment: Rat ear oedema (EPP induced); assay type: in vivo; details: mepyramine 1 μg/ear (positive control), 2 hours, 6 ears, p<0.01
Method: The rat ear oedema test is aimed to be used for detection of drugs with topical anti-inflammatory activity. It is based on the work by Tonelli et al., Endocrinology 77, 625-634, 1965, but instead of using the carcinogenic croton oil as induced, ethyl phenyl propiolate (EPP) is applied topically on the rat ears. The oedema develops rapidly (about 30 minutes) and starts to decline after two hours. Several measurements can be made by using a special measuring device and the values obtained with application of both EPP and the drug to be investigated are compared to values obtained with EPP alone.
The mechanism of the EPP induced oedema is not completely understood but it is known that compounds with broad anti-inflammatory action, like steroidal anti-inflammatory drugs, are active in this assay. The oedema can also be induced by other agents, such as arachidonic acid, and in that specific case the oedema is believed to develop through the action of the […], inflammatory mediators, leukotrienes. They can also contribute to the EPP oedema.
The Calaguala methanolic extract was tested in this model on several occasions. […]
The thickness of ears is measured after 2 hours. […] The significance of the values obtained was determined by using Students t-test (one tailed analysis). […]
The thickness of the ears was measured after 2 hours. […]

For COc1ccc(NC(=S)N2CCc3c(sc4c3C(c3ccccc3Cl)=NCc3nnc(C)n3-4)C2)cc1 [BN 50730], the IC50 (PAF receptor [1]) is listed as 0.04 µM and the “PAF antagonistic activity in vitro (compared with BN 52021)” value (PAF receptor [2]; Guinot 1994) is listed as “several ten-folds more potent”.
For CC1C(=O)OC2C(O)C34C5CC(C(C)(C)C)C36C(OC(=O)C6O)OC4(C(=O)O5)C12O (stereo not drawn) [BN 52021], the IC50 [3] is given as 80 µM, the IC50 (PAF receptor [1]) is given as 25 µM and the “anti-inflammatory properties in several in vivo and in vitro models” value (PAF receptor [2]) is given as “anti-inflammatory properties”. For the same molecule, the “effect on PAF enhancement of carrageenan induced oedema” value [4] was “capable of abolishing this enhancement”.
In the case of O=C(O)c1ccccc1O [Na-salicylate], the “Mean decrease in oedema (Table 4)” value [5] is reported as 43%.
For CCCCC/C=C\C/C=C\C/C=C\C/C=C\CCCC(=O)O [arachidonic acid], the “inhibition of leukotriene B4 synthesis” value [6] is given as “inhibitory activity”.
For CCCCC/C=C\C/C=C\CCCCCCCC(=O)O [linoleic acid], the “inhibition of leukotriene B4 synthesis” value [6] is listed as “inhibitory activity”.
In the case of digalactosyldiacylglycerol [DGDG], the “inhibitory activity in the PAF induced exocytosis model” value [3] is given as “no inhibitory activity” and the “inhibition of tumour promotion compared with SQDG” value (tumour promotion) is given as “inhibit tumour promotion more intensely than SQDG”.
For CC/C=C\C/C=C\C/C=C\CCCCCCCC(=O)O [linolenic acid], the “inhibition of leukotriene B4 synthesis” value [6] is listed as “inhibitory activity”.
For CCCCCCCCCCCCCCCC(=O)OC[C@H](CO[C@H]1O[C@H](CS(=O)(=O)O)[C@@H](O)[C@H](O)[C@H]1O)OC(=O)CCCCCCCCCCCCCCC [SQDG of the formula III, 1,2-O,O-dipalmitoyl-[6'-sulpho-α-D-quinovopyranosyl(1'→3)]-sn-glycerol], the IC50 ([3]; Neutrophil) was 10 µM and the IC50 (PAF receptor [1]) was 2 µM.
In the case of CCCCCCCC/C=C\CCCCCCCC(=O)O [oleic acid], the “inhibition of leukotriene B4 synthesis” value [6] is given as “comparable inhibitory patterns”.
With COc1ccc(CN(CCN(C)C)c2ccccn2)cc1 [Mepyramin] the “Mean decrease in oedema (ear thickness, Table 2)” value [7] was 44%.
For monogalactosyldiacylglycerol [MGDG], the “inhibitory activity in the PAF induced exocytosis model” value [3] is listed as “no inhibitory activity” and the “inhibition of tumour promotion compared with SQDG” value (tumour promotion) is listed as “inhibit tumour promotion more intensely than SQDG”.
